# Laboratory results as given in patent US10464947B2 (Incyte Corporation, priority 2013, dated 2019).
# Counter-ions that a name gives are not always drawn. Like-named read-outs stand apart in the source and are kept apart here.
# What was measured:
# BRD4-BD1 [1] = target: T1, BRD4-BD1 (Homo sapiens (Human), UniProt O60885); test: BRD4 AlphaScreen Assay (Example A1), BRD4-BD1; format: binding; settings: H4Ac4 peptide, 3.8 nM BRD4-BD1, read-out: BRD4 BD-1 enzyme IC50
# Experimental: (§1) BRD4-BD1 and BRD4-BD2 assays were conducted in white 384-well polystyrene plate in a final volume of 20 μL for BD1 and 40 μL for BD2. Inhibitors were first serially diluted in DMSO and added to the plate wells before the addition of other reaction components. […] After plate sealing, the plate was incubated in the dark at room temperature for 75 min. before reading on a PHERAstar FS plate reader (BMG Labtech). IC50 determination was performed by fitting the curve of percent control activity versus the log of the inhibitor concentration using the GraphPad Prism 5.0 software.
# KMS.12.BM cells = test: KMS.12.BM Cell Viability Assay (Example B1); format: cell-based, human; settings: 3 days, Cell Titer-GLO, read-out: KMS cellular IC50
# In short: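 KMS.12.BM human myeloma cells, 5000 cells/well in RPMI with 10% FBS, exposed to a compound concentration range for 3 days. Viable cells measured by ATP-based Cell Titer-GLO luminescence after 10 min at room temperature.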
# BRD4-BD2 [2] = target: T2, BRD4-BD2 (Homo sapiens (Human), UniProt O60885); test: BRD4 AlphaScreen Assay (Example A1), BRD4-BD2; format: binding; settings: H4Ac4 peptide, 20 nM BRD4-BD2, read-out: BRD4 BD-2 enzyme IC50
# Experimental: as §1
# C-myc in KMS.12.BM cells = test: KMS.12.BM C-Myc ELISA Assay (Example C1); format: cell-based; settings: Homo sapiens, 2 h
# Experimental: KMS.12.BM C-Myc ELISA Assay
# KMS.12.BM cell line (human myeloma) was purchased from JCRB (Osaka, Japan) and maintained in RPMI with 10% FBS culture medium. To measure the C-myc inhibitory activity of the compounds, the KMS.12.BM cells are plated in the RPMI culture medium at 75000 cells/well/per 200 μL into a 96-well flat bottom polystyrene tissue culture plate (Corning through VWR, NJ), in the presence or absence of a concentration range of test compounds. After 2 h, cells are pelleted and lysed with Cell Extraction Buffer (BioSource, Carlsbad, Calif.) in the presence of protease inhibitors (Life Technologies, Grand Island, N.Y. and Sigma, St Louis, Mo.). Clarified lyses are tested in a C-myc commercial ELISA (Life Technologies, Grand Island, N.Y.).
# BRD4-BD2 [3] = target: T2, BRD4-BD2; test: BRD4 AlphaScreen Assay (Example A2), BRD4-BD2; format: binding; settings: read-out: BRD4 BD-2 enzyme IC50
# Experimental: as §1, with “40” for “20”, “60” for “40”, “components. […] The assays were carried out at room temperature in the assay buffer (50 mM Tris-HCl, pH 7.5, 0.01% Tween-20, 0.01% BSA, 5 mM DTT), containing 50 nM Biotin-labeled tetra-acetylated histone H4 peptide (H4Ac4) and BRD4-BD1 or BRD4-BD2 protein at concentration less than 1 nM.” for “components.”
# BRD4-BD1 [4] = target: T1, BRD4-BD1; test: BRD4 AlphaScreen Assay (Example A2), BRD4-BD1; format: binding; settings: read-out: BRD4 BD-1 enzyme IC50
# Experimental: as §1, with “40” for “20”, “60” for “40”, “components. […] The assays were carried out at room temperature in the assay buffer (50 mM Tris-HCl, pH 7.5, 0.01% Tween-20, 0.01% BSA, 5 mM DTT), containing 50 nM Biotin-labeled tetra-acetylated histone H4 peptide (H4Ac4) and BRD4-BD1 or BRD4-BD2 protein at concentration less than 1 nM.” for “components.”
IC50 (C-myc in KMS.12.BM cells) [nM],SMILES,"IC50 (KMS.12.BM cells; Homo sapiens, 72 h) [nM]",other results
< 1000,"Cc1noc(C)c1-c1ccc2[nH]c(=O)n3c2c1OCC3c1ccccc1 (single isomer, unassigned) [Example 1A, 7-(3,5-Dimethylisoxazol-4-yl)-4-phenyl-4,5-dihydroimidazo[1,5,4-de][1,4]benzoxazin-2(1H)-one]",–,IC50 (BRD4-BD1 [1]): ≤ 100 nM; IC50 (KMS.12.BM cells): < 1000 nM; IC50 (BRD4-BD2 [2]): ≤ 100 nM
< 1000,"CC(=O)N1CC=C(c2nc3ccc(-c4c(C)noc4C)c4c3n2[C@@H](c2ccccn2)CO4)CC1 [Example 110, (4S)-2-(1-acetyl-1,2,3,6-tetrahydropyridin-4-yl)-7-(3,5-dimethylisoxazol-4-yl)-4-pyridin-2-yl-4,5-dihydroimidazo[1,5,4-de][1,4]benzoxazine]",< 1000,–
< 1000,"Cc1noc(C)c1-c1ccc2[nH]c(=O)n3c2c1OCC3c1cccnc1C(N)=O (centres unmarked) [Example 127, 3-[7-(3,5-Dimethylisoxazol-4-yl)-2-oxo-1,2,4,5-tetrahydroimidazo[1,5,4-de][1,4]benzoxazin-4-yl]pyridine-2-carboxamide trifluoroacetate]",< 1000,–
< 1000,"COCC(=O)NCc1cc(-c2c(C)noc2C)c2c3c1[nH]c(=O)n3[C@@H](c1ccccn1)CO2 [Example 140, N-{[(4S)-7-(3,5-Dimethylisoxazol-4-yl)-2-oxo-4-pyridin-2-yl-1,2,4,5-tetrahydroimidazo[1,5,4-de][1,4]benzoxazin-9-yl]methyl}-2-methoxyacetamide]",< 1000,–
< 1000,"Cc1noc(C)c1-c1cc(CNS(C)(=O)=O)c2[nH]c(=O)n3c2c1OC[C@@H]3c1ccccn1 [Example 141, N-{[(4S)-7-(3,5-Dimethylisoxazol-4-yl)-2-oxo-4-pyridin-2-yl-1,2,4,5-tetrahydroimidazo[1,5,4-de][1,4]benzoxazin-9-yl]methyl}methanesulfonamide]",< 1000,–

# Continued, compound first:
SMILES,IC50 (C-myc in KMS.12.BM cells) [nM],"IC50 (KMS.12.BM cells; Homo sapiens, 72 h) [nM]",other results
"Cc1noc(C)c1-c1ccc2[nH]c(=O)n3c2c1OCC3c1ccccc1 (single isomer, unassigned) [Example 1B, 7-(3,5-Dimethylisoxazol-4-yl)-4-phenyl-4,5-dihydroimidazo[1,5,4-de][1,4]benzoxazin-2(1H)-one]",–,–,IC50 (BRD4-BD1 [1]): 100 to 1000 nM; IC50 (BRD4-BD2 [2]): 100 to 1000 nM
"Cc1noc(C)c1-c1ccc2[nH]c(=O)n3c2c1OCC3c1cccnc1C(=O)NCCO (single isomer, unassigned) [Example 135, 3-[7-(3,5-Dimethylisoxazol-4-yl)-2-oxo-1,2,4,5-tetrahydroimidazo[1,5,4-de][1,4]benzoxazin-4-yl]-N-(2-hydroxyethyl)pyridine-2-carboxamide]",< 1000,< 1000,IC50 (BRD4-BD2 [3]): < 100 nM; IC50 (BRD4-BD1 [4]): < 100 nM
"Cc1noc(C)c1-c1ccc2[nH]c(=O)n3c2c1OCC3c1cccnc1C(=O)NCC(F)(F)F (single isomer, unassigned) [Example 136, 3-[7-(3,5-dimethylisoxazol-4-yl)-2-oxo-1,2,4,5-tetrahydroimidazo[1,5,4-de][1,4]benzoxazin-4-yl]-N-(2,2,2-trifluoroethyl)pyridine-2-carboxamide]",< 1000,< 1000,IC50 (BRD4-BD2 [3]): < 100 nM; IC50 (BRD4-BD1 [4]): < 100 nM
"CNC(=O)c1ncccc1C1COc2c(-c3c(C)noc3C)ccc3[nH]c(=O)n1c23 (centres unmarked) [Example 128, 3-[7-(3,5-Dimethylisoxazol-4-yl)-2-oxo-1,2,4,5-tetrahydroimidazo[1,5,4-de][1,4]benzoxazin-4-yl]-N-methylpyridine-2-carboxamide]",< 1000,< 1000,–
"Cc1noc(C)c1-c1ccc2[nH]c(=O)n3c2c1OCC3c1cccnc1CN (centres unmarked) [Example 130, 4-[2-(Aminomethyl)pyridin-3-yl]-7-(3,5-dimethylisoxazol-4-yl)-4,5-dihydroimidazo[1,5,4-de][1,4]benzoxazin-2(1H)-one bis(trifluoroacetate)]",< 1000,< 1000,–
"CC(=O)NCc1cc(-c2c(C)noc2C)c2c3c1[nH]c(=O)n3[C@@H](c1ccccn1)CO2 [Example 138, N-{[(4S)-7-(3,5-Dimethylisoxazol-4-yl)-2-oxo-4-pyridin-2-yl-1,2,4,5-tetrahydroimidazo[1,5,4-de][1,4]benzoxazin-9-yl]methyl}acetamide trifluoroacetate]",< 1000,< 1000,–
"Cc1noc(C)c1-c1cc(CNC(=O)Cc2ccccc2)c2[nH]c(=O)n3c2c1OC[C@@H]3c1ccccn1 [Example 139, N-{[(4S)-7-(3,5-Dimethylisoxazol-4-yl)-2-oxo-4-pyridin-2-yl-1,2,4,5-tetrahydroimidazo[1,5,4-de][1,4]benzoxazin-9-yl]methyl}-2-phenylacetamide]",1000 to 10000,< 1000,–
"Cc1noc(C)c1-c1cc(CNC(=O)NC(C)C)c2[nH]c(=O)n3c2c1OC[C@@H]3c1ccccn1 [Example 142, N-{[(4S)-7-(3,5-Dimethylisoxazol-4-yl)-2-oxo-4-pyridin-2-yl-1,2,4,5-tetrahydroimidazo[1,5,4-de][1,4]benzoxazin-9-yl]methyl}-N′-isopropylurea]",< 1000,–,"IC50 (KMS.12.BM cells; Homo sapiens, KMS-12-BM, 72 h): < 1000 nM"
